The values that follow come from patent US12378211B2, “Carbonic anhydrase inhibitors and antibiotics against multidrug resistant bacteria” (Purdue Research Foundation, priority 2018, dated 2025).

Converted amounts (≈) assume the structure as drawn.

In general, MIC refers to the lowest concentration that inhibits growth of the organism.

Holding throughout (experiment): MIC, broth microdilution in TSB
What all share (format): cell-based
For orientation: Broth dilution looks for growth in wells or tubes with falling amounts of substance.

Experiment [1] has as its system Enterococcus fecalis Strain SF 28073-NR31972. To be noted: TSB, Table 7; for MIC: Enterococcus, read-out: MIC in TSB. The protocol: (§1) The minimum inhibitory concentrations (MICs) of the compounds and control drugs were determined using the broth microdilution method, according to guidelines outlined by the Clinical and Laboratory Standards Institute (CLSI). Enterococci strains were grown aerobically overnight on tryptone soya agar plates at 37° C., afterwards a bacterial solution equivalent to 0.5 McFarland standard was prepared and diluted in tryptone soy broth (TSB) to achieve a bacterial concentration of about 5×10^5 CFU/mL and seeded in 96-well well plates. Compounds and control drugs were added in the first row of the 96-well plates and serially diluted along the plates. Plates were then incubated aerobically at 37° C. for 18-20 hours. MICs reported in Table 1 are the minimum concentration of the compounds/control drugs that could inhibit completely the visual growth of the bacteria.

Experiment [2] concerns Enterococcus fecalis Strain SF24413 NR31971. As to conditions: TSB, Table 7; for MIC: Enterococcus, read-out: MIC in TSB. Here is the method: as §1
Experiment [3] relates to Enterococcus fecalis Strain MMH594-NR31975. As to conditions: TSB, Table 7; for MIC: Enterococcus, read-out: MIC in TSB. Here is the method:
as §1

Experiment [4] concerns Enterococcus faecalis—S613 HM-334. To be noted: TSB, Table 7; for MIC: Enterococcus, read-out: MIC in TSB. Here is the method:
as §1

For experiment [5], the system named is Enterococcus faecium Patient #3-1 NR-31912. As to conditions: TSB, Table 7; for MIC: Enterococcus faecium, read-out: MIC in TSB. The protocol: as §1
The subject of experiment [6] is Enterococcus fecalis Strain SF 24397 NR31970. As to conditions: TSB, Table 7; for MIC: Enterococcus, read-out: MIC in TSB. The protocol:
as §1

Experiment [7] concerns Enterococcus faecium Patient #2-1-NR-31909. As to conditions: TSB, Table 7; for MIC: Enterococcus faecium, read-out: MIC in TSB. The protocol:
as §1

For experiment [8], the system named is Enterococcus faecium E417-HM-965. To be noted: TSB, Table 7; for MIC: Enterococcus faecium, E417HM965, read-out: MIC in TSB. Here is the method: as §1

Consider `NS(=O)(=O)c1nnc(NC(=O)C2CCCC2)s1` [CAI0023, N-(5-Sulfamoyl-1,3,4-thiadiazol-2-yl)cyclopentanecarboxamide], for which the MIC in experiment [1] is 1 µg/mL (≈ 3.62 µM); in experiment [2] it was 0.5 µg/mL (≈ 1.81 µM); in experiment [3] it was 0.5 µg/mL (≈ 1.81 µM); in experiment [4] it was 0.5 µg/mL (≈ 1.81 µM); in experiment [5], 0.25 µg/mL (≈ 0.905 µM); in experiment [6], 0.5 µg/mL (≈ 1.81 µM). For the same compound, the minimal inhibitory concentration (MIC) is 0.06 µg/mL (≈ 0.217 µM) in experiment [7] and 0.25 µg/mL (≈ 0.905 µM) in experiment [8].

With “3-cyclohexyl-N-(5-sulfamoyl-1,3,4-thiadiazol-2-yl) propenamide [CAI0019]”, the “MIC in TSB” value in experiment [1] worked out at 0.015 µg/mL; in experiment [2], 0.015 µg/mL; in experiment [3], 0.015 µg/mL; in experiment [4] it was 0.007 µg/mL; in experiment [5], 0.007 µg/mL; in experiment [6], 0.015 µg/mL. In addition, the “MIC in TSB” value amounted to 0.003 µg/mL in experiment [7] and 0.007 µg/mL in experiment [8].

In the case of `CCCCCCC(=O)Nc1nnc(S(N)(=O)=O)s1` [CAI0027, N-(5-Sulfamoyl-1,3,4-thiadiazol-2-yl)heptanamide], the minimal inhibitory concentration (MIC) in experiment [1] amounted to 0.015 µg/mL (≈ 0.0513 µM); in experiment [2], 0.015 µg/mL (≈ 0.0513 µM); in experiment [3] it was 0.015 µg/mL (≈ 0.0513 µM); in experiment [4], 0.007 µg/mL (≈ 0.0239 µM); in experiment [5], 0.007 µg/mL (≈ 0.0239 µM); in experiment [6], 0.007 µg/mL (≈ 0.0239 µM). For the same compound, the values for the MIC in experiment [7] and in experiment [8] were 0.001 µg/mL (≈ 0.00342 µM) and 0.015 µg/mL (≈ 0.0513 µM), respectively.

On to `NS(=O)(=O)c1nnc(NCc2ccc(C(F)(F)F)cc2)s1` [CAI0008, 5-((4-(trifluoromethyl)benzyl)amino)-1,3,4-thiadiazole-2-sulfonamide], for which the MIC in experiment [1], in experiment [5], in experiment [7] and in experiment [8] was above 64 µg/mL in each case.

In the case of `NS(=O)(=O)c1nnc(NCc2ccc(Cl)cc2)s1` [CAI0001, 5-((4-chlorobenzyl)amino)-1,3,4-thiadiazole-2-sulfonamide], the minimal inhibitory concentration (MIC) was above 64 µg/mL in experiment [1], above 64 µg/mL in experiment [5], 8 µg/mL (≈ 26.2 µM) in experiment [7] and above 64 µg/mL in experiment [8].

As to `NS(=O)(=O)c1nnc(NCc2ccccc2C(F)(F)F)s1` [CAI0006, 5-((2-(trifluoromethyl)benzyl)amino)-1,3,4-thiadiazole-2-sulfonamide], the MIC in experiment [1], in experiment [7] and in experiment [8] was above 64 µg/mL in each case.

As for `NS(=O)(=O)c1nnc(NCc2cccc(C(F)(F)F)c2)s1` [CAI0007, 5-((3-(trifluoromethyl)benzyl)amino)-1,3,4-thiadiazole-2-sulfonamide], the MIC in experiment [1] is 4 µg/mL (≈ 11.8 µM); in experiment [5], 8 µg/mL (≈ 23.6 µM); in experiment [7], 8 µg/mL (≈ 23.6 µM); in experiment [8] it was 8 µg/mL (≈ 23.6 µM).

For the compound `NS(=O)(=O)c1nnc(NCc2ccccc2Cl)s1` [CAI0002, 5-((2-chlorobenzyl)amino)-1,3,4-thiadiazole-2-sulfonamide], the MIC in experiment [1], in experiment [5], in experiment [7] and in experiment [8] was above 64 µg/mL in each case.

Consider `NS(=O)(=O)c1nnc(NCc2cccc(Br)c2)s1` [CAI0004, 5-((3-bromobenzyl)amino)-1,3,4-thiadiazole-2-sulfonamide], for which the MIC in experiment [1] amounted to 8 µg/mL (≈ 22.9 µM); in experiment [5] it was 8 µg/mL (≈ 22.9 µM); in experiment [7], 8 µg/mL (≈ 22.9 µM); in experiment [8], 16 µg/mL (≈ 45.8 µM).

Regarding `NS(=O)(=O)c1nnc(NCc2ccccc2)s1` [CAI0005, 5-(benzylamino)-1,3,4-thiadiazole-2-sulfonamide], the minimum inhibitory concentration (MIC) in experiment [1], in experiment [7] and in experiment [8] was above 64 µg/mL throughout.

Turning to `NS(=O)(=O)c1nnc(NCc2ccc(Br)cc2)s1` [CAI0003, 5-((4-bromobenzyl)amino)-1,3,4-thiadiazole-2-sulfonamide], the MIC in experiment [1], in experiment [5], in experiment [7] and in experiment [8] was above 64 µg/mL each time.
